This is an account of results in US20250333573A1, “METHOD FOR TEXTILE AND POLYESTER DECONSTRUCTION AND UPCYCLING TO BIOPLASTIC IN A HALOPHILE” (Battelle Memorial Institute, priority 2024, published 2025).

The test system of test [1] is Halomonas elongata DSMZ 2581. As to the kind of experiment: Growth of Halomonas elongata on lactate and crotonate as the carbon source (OD600). The test is classed as cell-based. Particulars: 3 g/L crotonic acid alone; MM63 medium, 60 g/L NaCl, pH 8.0. The procedure: FIG. 30B: Growth of Halomonas elongata DSMZ 2581 in MM63 medium containing 3 g/L lactate, 3 g/L crotonate, and mixture of 3 g/L lactate and 3 g/L crotonate as indicated. MM63 medium contained 13.61 g/L KH·PO4, 4.21 g/L KOH, 1.98 (NH4)2SO4, 0.0011 g/L FeSO4—H2O 0.25 g/L MgSO4-7H2O, and 60 g/L NaCl set at pH=8.0. Points represent the average of three replicates and error bars are one standard deviation.
Media was prepared with MM63 minimal salts medium directly and used as a growth substrate for Halomonas elongata strain. MM63 minimal salts medium contains 13.61 g/L KH·PO4, 4.21 g/L KOH, 1.98 (NH4)2SO4, 0.0011 g/L FeSO4—H2O 0.25 g/L MgSO4-7H2O, 60 g/L NaCl. […] Assuming linearity in biomass to substrate loading, and assuming the major carbon source was crotonate and/or lactate, the increased optical density over time would indicate a high conversion of the substrates in the Halomonas strain.
Cell density was measured using a spectrophotometric assay detecting absorbance of each well/cuvette at 600 nm. The measurements were performed using a Thermo Scientific Genesys 150 spectrophotometer. A non-inoculated control was used to subtract background absorbance.

For test [2], the system named is WT Halomonas elongata. Briefly: Growth of WT Halomonas elongata on subcritical water products and ethylene glycol (OD600). The class given is cell-based. The conditions noted are these: 5 g/L ethylene glycol; minimal salts medium, 60 g/L NaCl.
Procedure: This was prepared with minimal salts medium directly and used as a growth substrate for the WT Halomonas elongata strain.
The SCW product contained 4.1 g/L EG, and the final medium preparation contained ˜1.6 g/L EG.

Regarding `C/C=C/C(=O)O` [crotonate, crotonic acid], the final optical density in test [1] is reported as 6.0. For the compound `OCCO` [ethylene glycol], the “final OD600” value in test [2] stood at 3.16.
